B1: 9° N: 9∘N DNA Polymerase (NEB) (protein, UniProt Q56366 1-775, looked up)
DNA polymerase: MILDTDYITENGKPVIRVFKKENGEFKIEYDRTFEPYFYALLKDDSAIEDVKKVTAKRHGTVVKVKRAEKVQKKFLGRPIEVWKLYFNHPQDVPAIRDRIRAHPAVVDIYEYDIPFAKRYLIDKGLIPMEGDEELTMLAFDIETLYHEGEEFGTGPILMISYADGSEARVITWKKIDLPYVDVVSTEKEMIKRFLRVVREKDPDVLITYNGDNFDFAYLKKRCEELGIKFTLGRDGSEPKIQRMGDRFAVEVKGRIHFDLYPVIRRTINLPTYTLEAVYEAVFGKPKEKVYAEEIAQAWESGEGLERVARYSMEDAKVTYELGREFFPMEAQLSRLIGQSLWDVSRSSTGNLVEWFLLRKAYKRNELAPNKPDERELARRRGGYAGGYVKEPERGLWDNIVYLDFRSLYPSIIITHNVSPDTLNREGCKEYDVAPEVGHKFCKDFPGFIPSLLGDLLEERQKIKRKMKATVDPLEKKLLDYRQRAIKILANSFYGYYGYAKARWYCKECAESVTAWGREYIEMVIRELEEKFGFKVLYADTDGLHATIPGADAETVKKKAKEFLKYINPKLPGLLELEYEGFYVRGFFVTKKKYAVIDEEGKITTRGLEIVRRDWSEIAKETQARVLEAILKHGDVEEAVRIVKEVTEKLSKYEVPPEKLVIHEQITRDLRDYKATGPHVAVAKRLAARGVKIRPGTVISYIVLKGSGRIGDRAIPADEFDPTKHRYDAEYYIENQVLPAVERILKAFGYRKEDLRYQKTKQVGLGAWLKVKGKK
B2: rTth: rTth DNA polymerase (protein, UniProt P52028 1-834, looked up)
DNA polymerase I, thermostable: MEAMLPLFEPKGRVLLVDGHHLAYRTFFALKGLTTSRGEPVQAVYGFAKSLLKALKEDGYKAVFVVFDAKAPSFRHEAYEAYKAGRAPTPEDFPRQLALIKELVDLLGFTRLEVPGYEADDVLATLAKKAEKEGYEVRILTADRDLYQLVSDRVAVLHPEGHLITPEWLWEKYGLRPEQWVDFRALVGDPSDNLPGVKGIGEKTALKLLKEWGSLENLLKNLDRVKPENVREKIKAHLEDLRLSLELSRVRTDLPLEVDLAQGREPDREGLRAFLERLEFGSLLHEFGLLEAPAPLEEAPWPPPEGAFVGFVLSRPEPMWAELKALAACRDGRVHRAADPLAGLKDLKEVRGLLAKDLAVLASREGLDLVPGDDPMLLAYLLDPSNTTPEGVARRYGGEWTEDAAHRALLSERLHRNLLKRLEGEEKLLWLYHEVEKPLSRVLAHMEATGVRLDVAYLQALSLELAEEIRRLEEEVFRLAGHPFNLNSRDQLERVLFDELRLPALGKTQKTGKRSTSAAVLEALREAHPIVEKILQHRELTKLKNTYVDPLPSLVHPRTGRLHTRFNQTATATGRLSSSDPNLQNIPVRTPLGQRIRRAFVAEAGWALVALDYSQIELRVLAHLSGDENLIRVFQEGKDIHTQTASWMFGVPPEAVDPLMRRAAKTVNFGVLYGMSAHRLSQELAIPYEEAVAFIERYFQSFPKVRAWIEKTLEEGRKRGYVETLFGRRRYVPDLNARVKSVREAAERMAFNMPVQGTAADLMKLAMVKLFPRLREMGARMLLQVHDELLLEAPQARAEEVAALAKEAMEKAYPLAVPLEVEVGMGEDWLSAKG

Legend:
3′-O-propargyl-dNTP = assay: Polymerase screening by nucleotide extension assay (incorporation of 3′-O-propargyl-dNTP as substrate); format: biochemical; parameters: key: a minus (“−”) indicates that the polymerase did not produce a detectable product incorporating the 3′-O-propargyl dNTP; a single plus (“+”) indicates that the polymerase produced a detectable product incorporating the 3′-O-propargyl dNTP; three plusses (“+++”) indicates that the polymerase produced a substantial amount of 3′-O-propargyl dNTP incorporation product
Source text: For example, in some exemplary assays and/or embodiments, compatible polymerases are identified by a polymerase extension reaction (e.g., a single base extension reaction). See, e.g., Ausebel et al. (eds.), Current Protocols in Molecular Biology. New York: John Wiley & Sons, Inc; Sambrook et al. (1989). Molecular Cloning: A Laboratory Manual. (2nd ed.). Cold Spring Harbor: Cold Spring Harbor Laboratory Press.
For example, identifying compatible polymerases comprises providing a polymerase to test and a reaction buffer appropriate for the polymerase. For polymerases obtained from a commercial supplier (e.g., New England BioLabs, United States Biologicals, Promega, Invitrogen, Worthington, Sigma-Aldrich, Fluka, Finnzymes, Roche, 5 Prime, Qiagen, KAPA Biosystems, Thermo Scientific, Agilent, Life Technologies, etc.), the polymerase is often supplied with an appropriate reaction buffer. An exemplary reaction buffer comprises, e.g., a compatible buffer (e.g., 20 mM Tris-HCl), a salt (e.g., 10 mM KCl), a source of magnesium or manganese (e.g., 2 mM MgSO4; 2 mM MnCl2, etc.), a detergent (e.g., 0.1% TRITON X-100) and has a suitable pH (e.g., approximately pH 8.8 at approximately 25° C.). The activities of some polymerases are improved in the presence of other compounds, such as sulfate and other salts (e.g., 10 mM (NH4)2SO4). Reaction mixtures for polymerase extension reactions are typically tested using Mg^2+ or Mn^2+ as the enzyme cofactor.
Polymerases are tested by providing in the reaction mixture a DNA template, a DNA primer that is complementary to the DNA template, and one or more nucleotides and/or nucleotide analogs. Typical concentrations of template and primer are approximately from 1 to 100 nM and typical concentrations of nucleotides and/or nucleotide analogs are approximately from 1 to 125 μM (e.g., 1 to 125 μM for each nucleotide and/or nucleotide analog and/or 1 to 500 μM total concentration of all nucleotides and/or nucleotide analogs). Templates and primers are synthesized by methods known in the art (e.g., using solid supports and phosphoramidite chemistry) and are available from several commercial suppliers (e.g., Integrated DNA Technologies, Coralville, Iowa).
A pre-annealed primer/template is typically produced for testing polymerases. For example, the primer is typically resuspended in a suitable buffer (e.g., Tris-EDTA, pH 8.0) at a suitable concentration, e.g., at 1 to 500 μM (e.g., at 100 μM) and the template is typically resuspended in a suitable buffer (e.g., Tris-EDTA, pH 8.0) at a suitable concentration, e.g., at 1 to 500 μM (e.g., at 100 μM). […] For example, a pre-annealed primer/template is produced by mixing approximately 100 μl of the approximately 1 to 500 μM (e.g., at 100 μM) primer solution to approximately 100 μl of the approximately 1 to 500 μM (e.g., at 100 μM) template solution in approximately 800 μl of an annealing buffer (e.g., 200 mM Tris, 100 mM potassium chloride, and 0.1 mM EDTA, pH 8.45) to provide a milliliter of primer/template solution. One of skill in the art can scale the volumes and concentrations as appropriate for the concentrations and volumes that are appropriate for the particular analysis. Then, an aliquot (e.g., 100 μl) of the primer/template solution is heated to denature intramolecular and/or intermolecular secondary structures (e.g., by heating at approximately 85° C. to 97° C. (e.g., at approximately 95° C.), e.g., for 1 to 5 minutes (e.g., 2 minutes). Next, the aliquot is cooled to an annealing temperature (e.g., 20° C. to 60° C. (e.g., 25° C.) and incubated for 1 to 10 minutes (e.g., for approximately 5 minutes) to allow the primer and template to anneal to form a primer/template. The primer/template can be diluted in an appropriate substrate dilution buffer (e.g., 20 mM Tris, 10 mM potassium chloride, and 0.01 mM EDTA, pH 8.45; e.g., a 1 to 10 dilution of the annealing buffer described above) for storage. […]

[1] = target: T1, Therminator II DNA polymerase (Thermococcus sp., UniProt Q56366, A485L/D141A/E143A/Y409V); assay: Ladder fragment generation with natural dNTPs and one 3′-O-propargyl-dNTP; format: biochemical, Thermococcus sp. 9∘N; conditions: natural dNTPs plus one 3′-O-propargyl-dNTP, KRAS template, 50 cycles
T1 construct: purchased New England BioLabs
Method: During the development of embodiments of the technology provided herein, experiments were conducted to assess using the nucleotide analogs of the present technology to generate nucleic acid fragments that terminate at base-specific positions. In particular, reaction mixtures were produced and tested that included both natural dNTPs and each of the 3′-O-propargyl-dNTPs individually.
To test the fragment generation by 3′-O-propargyl-dTTP, a DNA fragment generation reaction mix was prepared comprising 20 mM Tris-HCl, 10 mM (NH4)SO4, 10 mM KCl, 2 mM MnCl2, 0.1% Triton X-100, 1000 μmol dATP, 1000 μmol dCTP, 1000 μmol dGTP, 1000 μmol dTTP, 200 μmol 3′-O-propargyl-dTTP, 6.25 μmol of primer R_ke2_trP1_T_bio (SEQ ID NO: 2), and 2 units of THERMINATOR II DNA polymerase (New England BioLabs) in a 25-μl final reaction volume. A volume of 0.5 μmol of the KRAS template (SEQ ID NO: 1) was used as template. The polymerase extension reaction was performed using a temperature cycling profile comprising exposing the reaction to a temperature of 95° C. for 2 minutes followed by 50 cycles of 95° C. for 15 seconds, 55° C. for 25 seconds, and 65° C. for 35 seconds.
(§1) After the polymerase extension reaction, 1 μl of the reaction mix was used directly for nucleic acid size analysis by gel electrophoresis (e.g., using an Agilent 2100 Bioanalyzer and High Sensitivity DNA Assay Chip).
Additional polymerase extension experiments were performed using the reaction conditions described above and replacing the 3′-O-propargyl-dTTP with 3′-O-propargyl-dATP, 3′-O-propargyl-dCTP, or 3′-O-propargyl dGTP.

[2] = target: T1, Therminator II DNA polymerase; assay: Polymerase extension assay: incorporation of 3′-O-propargyl-dNTP at the 3′ end of a primer on KRAS template; format: biochemical, Thermococcus sp. 9∘N; conditions: 2 mM MnCl2, KRAS template, 35 cycles, size analysis by gel electrophoresis
Method: During the development of embodiments of the technology provided herein, experiments were conducted to assess the incorporation of 3′-O-propargyl-dNTPs into a nucleic acid by a polymerase. In particular, experiments were conducted to evaluate the accurate incorporation of 3′-O-propargyl-dNTPs into a nucleic acid and to evaluate the terminating activity of the 3′-O-propargyl-dNTPs. To assess these characteristics of the nucleotide analogs provided herein, polymerase extension assays were conducted using a template nucleic acid having a sequence from human KRAS (e.g., KRAS exon 2 and flanking intron sequences) and a complementary primer (Table 2).
To test incorporation of a 3′-O-propargyl-dTTP into a nucleic acid, a polymerase extension reaction mix was assembled comprising 20 mM Tris-HCl, 10 mM (NH4)SO4, 10 mM KCl, 2 mM MnCl2, 0.1% Triton X-100, 200 μmol 3′-O-propargyl-dTTP, 6.25 μmol of primer R_ke2_trP1_T_bio (SEQ ID NO: 2), and 2 units of Therminator II DNA polymerase (New England BioLabs) in a 25-μl final reaction volume. A volume of 0.5 μmol of the KRAS template (SEQ ID NO: 1) was used as template (Table 2). The polymerase extension reaction was performed using a temperature cycling profile comprising exposing the reaction to a temperature of 95° C. for 2 minutes followed by 35 cycles of 95° C. for 15 seconds, 55° C. for 25 seconds, and 65° C. for 35 seconds.
as §1
Additional polymerase extension experiments were performed using the reaction conditions described above and replacing the 3′-O-propargyl-dTTP and the primer R_ke2_trP1_T_bio with 3′-O-propargyl-dATP and the primer R_ke2_trP1_A bio (SEQ ID NO: 3); 3′-O-propargyl-dCTP and the primer R_ke2_trP1_C bio (SEQ ID NO: 5); and 3′-O-propargyl dGTP and the primer R_ke2_trP1_G bio (SEQ ID NO: 4).

T1 sequence (Q56366 whole entry D141A/E143A/Y409V/A485L, the tested form may be a part): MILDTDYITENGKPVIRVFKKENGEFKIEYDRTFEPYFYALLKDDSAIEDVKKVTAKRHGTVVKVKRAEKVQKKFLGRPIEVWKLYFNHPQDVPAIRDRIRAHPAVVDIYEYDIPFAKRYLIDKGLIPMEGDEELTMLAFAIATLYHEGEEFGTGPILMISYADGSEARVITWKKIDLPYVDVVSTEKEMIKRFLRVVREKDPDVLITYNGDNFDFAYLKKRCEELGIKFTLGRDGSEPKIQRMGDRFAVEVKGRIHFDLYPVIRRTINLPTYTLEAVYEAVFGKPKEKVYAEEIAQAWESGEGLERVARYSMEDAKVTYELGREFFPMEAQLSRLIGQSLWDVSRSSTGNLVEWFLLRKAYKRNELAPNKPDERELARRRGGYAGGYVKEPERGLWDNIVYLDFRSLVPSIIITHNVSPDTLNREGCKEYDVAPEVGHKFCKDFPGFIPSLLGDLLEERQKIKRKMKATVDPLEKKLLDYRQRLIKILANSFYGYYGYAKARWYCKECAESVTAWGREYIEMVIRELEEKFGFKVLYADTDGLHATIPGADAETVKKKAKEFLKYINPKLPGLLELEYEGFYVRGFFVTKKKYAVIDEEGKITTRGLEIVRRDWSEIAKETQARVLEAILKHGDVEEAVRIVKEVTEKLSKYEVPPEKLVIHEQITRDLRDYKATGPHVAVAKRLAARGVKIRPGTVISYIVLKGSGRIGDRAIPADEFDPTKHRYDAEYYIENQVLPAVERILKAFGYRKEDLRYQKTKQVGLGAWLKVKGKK

Molecule	product incorporating the 3′-O-propargyl dNTP (3′-O-propargyl-dNTP; co-factor Mg^2+)	product incorporating the 3′-O-propargyl dNTP (3′-O-propargyl-dNTP; co-factor Mn^2+)	generation of nucleic acid fragments terminated at base-specific positions [1]	incorporation at the 3′ end of the primer [2]	amounts of the two populations of nucleic acids (primer length vs primer plus one base) [2]
Amplitaq Gold: polymerase enzyme sold under the trade name Ampli-Taq (Life Technologies)	−	−			
C#CCO[C@H]1C[C@H](n2cnc3c(N)ncnc32)O[C@@H]1COP(=O)(O)OP(=O)(O)OP(=O)(O)O [3′-O-propargyl-dATP, 3′-O-propargyl-2′-deoxyadenosine-5′-triphosphate]			generated populations of nucleic acid fragments having a range of sizes corresponding to the expected lengths	successful incorporation	
C#CCO[C@H]1C[C@H](n2cc(C)c(=O)[nH]c2=O)O[C@@H]1COP(=O)(O)OP(=O)(O)OP(=O)(O)O [3′-O-propargyl-dTTP, 3′-O-propargyl-2′-deoxythymidine-5′-triphosphate]			generated a population of nucleic acid fragments having a range of sizes corresponding to the expected lengths	successful incorporation	approximately equal
B1	−	+			
B2	−	−			

Reference: patent US10995363B2, “Nucleotide analogs” (ABBOTT MOLECULAR INC., priority 2013, dated 2021)
